Experimental data as given in patent publication US20250092065A1, “2-(INDAZOL-5-YL)-6-(PIPERIDIN-4-YL)-1,7-NAPHTHYRIDINE DERIVATIVES AND RELATED COMPOUNDS AS MODULATORS FOR SPLICING NUCLEIC ACIDS AND FOR THE TREATMENT OF PROLIFERATIVE DISEASES” (REMIX THERAPEUTICS INC., priority 2022, published 2025).
Read-outs that look alike come from different tables or passages of the source.

Columns and labels:
MYB = assay: HiBiT protein abundance assay, MYB (K562 HiBiT knock-in); format: cell-based, human; conditions: HiBiT knock-in K562 cells, 24 hours, top dose 10 μM
Outline: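 Tagged-protein levels were measured as HiBiT/LgBiT luminescence in lysed K562 knock-in cells exposed to serially diluted compound (up to 10 μM final) for 24 hours. A four-parameter logistic regression of control-normalized signal yielded the IC50.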

MYB mRNA = assay: RT-qPCR splicing assay, MYB mRNA canonical (CJ) and alternative (AJ) junction; format: cell-based, human; conditions: Homo sapiens; for AC50: MYB alternative junction mRNA, read-out: MYB AJ (increase in AJ mRNA, AC50)
Outline: (§1)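 Canonical and alternative-exon junction isoforms were quantified by RT-qPCR in cell lysates, with ΔCt against a housekeeper (GAPDH/GUSB/PPIA), then ΔΔCt vs DMSO, converted to 2^(−ΔΔCt) and percent response. K562 or A673 cells were exposed for 24 h to 11 concentrations (3-fold, top final 10 uM).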

K562 cells = assay: Cell Titer Glo 2.0 cell viability (toxicity) assay, K562; conditions: 500 cells/well, 72 hours
SMN2 mRNA = assay: RT-qPCR splicing assay, SMN2 mRNA; format: cell-based, human; conditions: Homo sapiens, canonical junction qPCR panel, Table 4; read-out: SMN2 IC50 (decrease in CJ mRNA levels)
Outline: as §1

[1] = MYB canonical junction mRNA, RT-qPCR, read-out: MYB CJ (decrease in CJ mRNA levels, IC50)
[2] = canonical junction qPCR panel, Table 4, read-out: MYB IC50 (decrease in CJ mRNA levels)

Row | SMILES | IC50 (MYB) [nM] | AC50 (MYB mRNA; RT-qPCR) [nM] | IC50 (MYB mRNA; [1]) [nM] | IC50 (MYB mRNA; [2]) [nM] | Effect of Exemplary Compounds on Cell Viability, K562 (K562 cells) | IC50 (SMN2 mRNA) [nM]
1 | Cn1cc2cc(-c3ccc4nc([C@@H]5CCNC6(CC6)C5)ccc4n3)c(O)cc2n1 (single isomer, unassigned) [Compound 495] | < 100 | < 100 | < 100 | < 100 | B (B represents 100-1000 nM) | < 100
2 | Cn1cc2cc(-c3ccc4nc([C@H]5CCNC6(CC6)C5)ccc4n3)c(O)cc2n1 (single isomer, unassigned) [Compound 496] | < 100 | < 100 | 100 to 1000 | 100 to 1000 | B (B represents 100-1000 nM) | < 100
3 | Cc1nc2cc(O)c(-c3ccc4nc([C@H]5CCNC6(CC6)C5)ccc4n3)cc2o1 (single isomer, unassigned) [Compound 497] | < 100 | < 100 | < 100 | < 100 | A (A represents <100 nM) | < 100
4 | Cc1nc2cc(O)c(-c3ccc4nc([C@@H]5CCNC6(CC6)C5)ccc4n3)cc2o1 (single isomer, unassigned) [Compound 498] | < 100 | < 100 | 100 to 1000 | 100 to 1000 | B (B represents 100-1000 nM) | < 100
5 | CN[C@@H]1CCN(c2ccc3nc(-c4cn5cc(C)nc5c(C)c4O)ncc3n2)C1 (single isomer, unassigned) [Compound 504] | 100 to 1000 | 100 to 1000 | 100 to 1000 | 100 to 1000 | B (B represents 100-1000 nM) | < 100
6 | CNC(=O)c1nc(-c2cc3cn(C)nc3c(C)c2O)nc2ccc(N3CCN[C@@H](C)C3)cc12 (single isomer, unassigned) [Compound 512] | < 100 | < 100 | < 100 | < 100 | A (A represents <100 nM) | < 100
7 | CN[C@@H]1CCN(c2ccc3nc(-c4cc5cn(C)nc5c(C)c4O)ncc3c2)C1 (single isomer, unassigned) [Compound 521] | < 100 | < 100 | < 100 | < 100 | A (A represents <100 nM) | < 100
8 | CNC(=O)c1nc(-c2cc3cn(C)nc3c(C)c2O)nc2ccc(N3C[C@@H](C)N[C@H](C)C3)cc12 (single isomer, unassigned) [Compound 653] | < 100 | < 100 | < 100 | < 100 | A (A represents <100 nM) | < 100
9 | Cc1c(O)c(-c2ncc3cc(N4C[C@@H](C)N[C@H](C)C4)ccc3n2)cc2cn(C)nc12 (single isomer, unassigned) [Compound 661] | < 100 | 100 to 1000 | 100 to 1000 | 100 to 1000 | B (B represents 100-1000 nM) | < 100
10 | CNC(=O)c1nc(-c2cc3cn(C)nc3c(F)c2O)nc2ccc(N3C[C@@H](C)N[C@H](C)C3)cc12 (single isomer, unassigned) [Compound 668] | < 100 | < 100 | < 100 | < 100 | A (A represents <100 nM) | < 100
11 | CNC(=O)c1nc(-c2cc3cn(C)nc3c(F)c2O)nc2ccc(N3C[C@H](C)N[C@@H](C)C3)cc12 (single isomer, unassigned) [Compound 669] | < 100 | < 100 | < 100 | < 100 | A (A represents <100 nM) | < 100
12 | CNC(=O)c1nc(-c2cc3cn(C)nc3cc2O)nc2ccc(N3C[C@H](C)N[C@@H](C)C3)cc12 (single isomer, unassigned) [Compound 676] | < 100 | < 100 | < 100 | < 100 | A (A represents <100 nM) | < 100
13 | CNC(=O)c1nc(-c2cc3cn(C)nc3cc2O)nc2ccc(N3C[C@@H](C)N[C@H](C)C3)cc12 (single isomer, unassigned) [Compound 677] | < 100 | < 100 | < 100 | < 100 | B (B represents 100-1000 nM) | < 100
14 | Cc1cn2cc(-c3ccc4cc(N5C[C@H](C)N[C@@H](C)C5)cc(F)c4n3)cc(F)c2n1 (single isomer, unassigned) [Compound 705, 2,2,2-trifluoroacetate] | < 100 | 100 to 1000 | < 100 | < 100 | A (A represents <100 nM) | 
15 | Cn1cc2cc(-c3ncc4nc(C5CCNCC5)ccc4n3)c(O)c(F)c2n1 [Compound 155] | < 100 | < 100 | < 100 | < 100 | A (A represents <100 nM) | < 100
16 | Cc1nc2cc(O)c(-c3ccc4nc(N5CCNC(C(C)(C)C)C5)ccc4n3)cc2o1 (centres unmarked) [Compound 492] | 100 to 1000 | 100 to 1000 | 1000 to 10000 | 1000 to 10000 | C (C represents 1000-9999 nM) | < 100
17 | Cc1nc2cc(O)c(-c3ccc4nc(N5CC[C@@H](N(C)C(C)(C)C)C5)ccc4n3)cc2o1 [Compound 493] | < 100 | < 100 | < 100 | < 100 | A (A represents <100 nM) | < 100
18 | Cc1c(O)c(-c2nc(C(=O)N(C)C)c3cc(N4CCNCC4)ccc3n2)cc2cn(C)nc12 [Compound 502, 2-(6-hydroxy-2,7-dimethylindazol-5-yl)-N,N-dimethyl-6-(piperazin-1-yl)quinazoline-4-carboxamide] | 1000 to 10000 | 1000 to 10000 | 1000 to 10000 | 1000 to 10000 | C (C represents 1000-9999 nM) | 100 to 1000
19 | CCNC(=O)c1nc(-c2cc3cn(C)nc3c(C)c2O)nc2ccc(N3CCNCC3)cc12 [Compound 503, N-ethyl-2-(6-hydroxy-2,7-dimethylindazol-5-yl)-6-(piperazin-1-yl)quinazoline-4-carboxamide] | < 100 | < 100 | < 100 | < 100 | A (A represents <100 nM) | < 100
20 | CNC(=O)c1nc(-c2cc(F)c3nc(C)cn3c2)nc2ccc(N3CCNCC3)cc12 [Compound 505, 2-{8-fluoro-2-methylimidazo[1,2-a]pyridin-6-yl}-N-methyl-6-(piperazin-1-yl) quinazoline-4-carboxamide] | < 100 | < 100 | < 100 | < 100 | B (B represents 100-1000 nM) | < 100
21 | CNC(=O)c1nc(-c2cc3cn(C)nc3c(F)c2O)nc2ccc(N3CCNCC3)cc12 [Compound 506, 2-(7-fluoro-6-hydroxy-2-methylindazol-5-yl)-N-methyl-6-(piperazin-1-yl)quinazoline-4-carboxamide] | < 100 | < 100 | < 100 | < 100 |  | < 100
22 | CNC(=O)c1nc(-c2cc3cn(C)nc3c(C)c2O)nc2ccc(N3CCC(N(C)C)CC3)cc12 [Compound 507, 6-[4-(dimethylamino)piperidin-1-yl]-2-(6-hydroxy-2,7-dimethylindazol-5-yl)-N-methylquinazoline-4-carboxamide] | < 100 | < 100 | < 100 | < 100 | A (A represents <100 nM) | < 100
23 | CNc1nc(-c2cc3cn(C)nc3c(C)c2O)nc2ccc(N3CCNCC3)cc12 [Compound 508, 2,7-dimethyl-5-[4-(methylamino)-6-(piperazin-1-yl)quinazolin-2-yl]indazol-6-ol] | 1000 to 10000 | 1000 to 10000 | 1000 to 10000 | 1000 to 10000 |  | 100 to 1000
24 | Cc1c(O)c(-c2nc(N(C)C)c3cc(N4CCNCC4)ccc3n2)cc2cn(C)nc12 [Compound 509, 5-[4-(dimethylamino)-6-(piperazin-1-yl)quinazolin-2-yl]-2,7-dimethylindazol-6-ol] | 1000 to 10000 | > 10000 | > 10000 | > 10000 |  | 100 to 1000
25 | CNC(=O)c1nc(-c2cc3cn(C)nc3c(C)c2O)nc2ccc(N3CCC(NC)C3)cc12 (centres unmarked) [Compound 510, 2-(6-hydroxy-2,7-dimethylindazol-5-yl)-N-methyl-6-[3-(methylamino)pyrrolidin-1-yl]quinazoline-4-carboxamide] | < 100 | < 100 | < 100 | < 100 | A (A represents <100 nM) | < 100
